The values below come from US5336690A, “Aminosulfonyl carbamates composition and method of use to treat hypercholesterolemia and atherosclerosis” (Warner-Lambert Company, priority 1993, dated 1994).

Structures can show the parent of a compound that is named as a salt. Where two headings read alike, the source gives them in different places.

The target in assay [1] is T1, acyl-CoA: cholesterol acyltransferase (ACAT) (Oryctolagus cuniculus, UniProt G1SFD9).
T1 construct: tissue preparation containing rabbit intestinal microsomes; from tissue; host or cells: rabbit intestinal microsomes
T1 sequence (G1SFD9 1-524): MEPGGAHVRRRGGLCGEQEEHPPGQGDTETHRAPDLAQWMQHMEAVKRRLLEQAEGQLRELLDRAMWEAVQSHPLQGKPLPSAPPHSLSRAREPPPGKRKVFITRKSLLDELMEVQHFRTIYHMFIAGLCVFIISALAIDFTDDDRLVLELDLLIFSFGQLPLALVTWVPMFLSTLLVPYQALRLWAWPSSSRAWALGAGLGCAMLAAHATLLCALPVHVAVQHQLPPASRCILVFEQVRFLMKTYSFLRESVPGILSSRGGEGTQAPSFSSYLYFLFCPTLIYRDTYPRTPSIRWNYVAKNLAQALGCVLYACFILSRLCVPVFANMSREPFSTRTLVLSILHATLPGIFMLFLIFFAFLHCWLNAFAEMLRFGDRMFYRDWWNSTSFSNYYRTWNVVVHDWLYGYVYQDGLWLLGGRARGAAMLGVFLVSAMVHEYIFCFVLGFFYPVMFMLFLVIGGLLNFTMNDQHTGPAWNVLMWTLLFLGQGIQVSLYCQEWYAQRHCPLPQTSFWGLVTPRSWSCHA
The experiment in a line: in vitro ACAT inhibition (IAI): formation of radiolabeled cholesterol oleate from radiolabeled oleic acid in rabbit intestinal microsomes. It counts as biochemical. As for the experimental part: The ability of representative compounds of the present invention to inhibit ACAT was measured using an in vitro test more fully described in F. J. Field and R. G. Salone, Biochemica et Biophysica 712:557-570 (1982). The test assesses the ability of a test compound to inhibit the acylation of cholesterol by oleic acid by measuring the amount of radiolabeled cholesterol oleate formed from radiolabeled oleic acid in a tissue preparation containing rabbit intestinal microsomes.

Assay [2] is described as follows: APCC in vivo screen: blood cholesterol in male Sprague-Dawley rats on high fat, high cholesterol diet with 0.5% cholic acid. The note with it: high fat high cholesterol diet overnight; for change in vivo at 30 mg/kg / % Change (mg/dl) (cholesterol): single dose 30 mg/kg; for % Change (mg/dl) (cholesterol): 30 mg/kg. The text has this: In one in vivo screen designated APCC, male Sprague-Dawley rats (200 to 225 g) were randomly divided into treatment groups and dosed at 4 PM with either vehicle (CMC/Tween) or suspensions of compounds in vehicle. The normal chow diet was then replaced with a high fat, high cholesterol diet with 0.5% cholic acid. The rats consumed this diet ad libitum during the night and were sacrificed at 8 AM to obtain blood samples for cholesterol analysis using standard procedures. Statistical differences between mean cholesterol values for the same vehicle were determined using analysis of variance followed by Fisher's least significant test. The compounds were dosed at 30 mg/kg unless otherwise noted.

[3] abbreviates: rabbit intestinal microsomes, read-out: IAI IC50.
The mark [4] stands for this setting: Rattus norvegicus, read-out: % Change (mg/dl) (cholesterol).
Setting [5] is: rat, read-out: % Change (mg/dl) (cholesterol).

Consider `Cc1cc(C(C)(C)C)c(OC(=O)NS(=O)(=O)N(C)CCc2ccccc2)c(C(C)(C)C)c1` [Example 27, 2,6-Bis(1,1-dimethylethyl)-4-methylphenyl[[methyl(2-phenylethyl)amino]sulfonyl]carbamate], for which, in assay [1] (setting [3]), the IC50 was 18.9 µM. For the same molecule, in assay [2] (setting [4]), the change in vivo at 30 mg/kg was -29%.

In the case of `CC(C)c1cccc(C(C)C)c1OC(=O)NS(=O)(=O)N1CCCCC1` [Example 51, 2,6-Bis(1-methylethyl)-phenyl ester(1-piperidinylsulfonyl)-carbamic acid], in assay [1] (setting [3]), the IC50 is above 100 µM. In addition, the change in vivo at 30 mg/kg in assay [2] (setting [4]) was -11%.

On to `Cc1cc(C(C)(C)C)c(OC(=O)NS(=O)(=O)N(C)CCc2ccccn2)c(C(C)(C)C)c1` [Example 32, 2,6-Bis(1,1-dimethylethyl)-4-methylphenyl[[[methyl 2-(2-pyridinyl)ethyl]amino]sulfonyl]carbamate, hydrochloride salt], for which the IC50 in assay [1] (setting [3]) was 31 µM. For the same molecule, the “% Change (mg/dl) (cholesterol)” value in assay [2] (rat, hydrochloride salt) is listed as -10 % Change (mg/dl).

Regarding `CCCCN(CCCC)S(=O)(=O)NC(=O)Oc1c(C(C)C)cccc1C(C)C` [Example 11, 2,6-Bis(1-methylethyl)phenyl[(dibutylamino)sulfonyl]carbamate], in assay [1] (setting [3]), the IC50 stood at 1.9 µM. Also, in assay [2] (rat), the “% Change (mg/dl) (cholesterol)” value was -57 % Change (mg/dl).

In the case of `CC(C)c1cccc(C(C)C)c1OC(=O)NS(=O)(=O)N1CCOCC1` [Example 50, 2,6-Bis(1-methylethyl)-phenyl ester(4-morpholinylsulfonyl)-carbamic acid], in assay [1] (setting [3]), the IC50 was above 100 µM. Moreover, the change in vivo at 30 mg/kg in assay [2] (setting [4]) was -14%.

As to `CC(C)c1cccc(C(C)C)c1OC(=O)NS(=O)(=O)N1CCN(C)CC1` [Example 53, 2,6-Bis(1-methylethyl)-phenyl ester, monohydrochloride[(4-methyl-1-piperazinyl)-sulfonyl] carbamic acid], the half-maximal inhibitory concentration (IC50) in assay [1] is above 100 µM. In addition, the change in vivo at 30 mg/kg in assay [2] (setting [5]) was -21%.

`CC(C)c1cccc(C(C)C)c1NS(=O)(=O)NC(=O)Oc1c(-c2ccccc2)cccc1-c1ccccc1` [Example 56, [1,1':3', 1"-terphenyl]-2'-yl[[[2,6-bis(1-methylethyl)phenyl]amino]sulfonyl]carbamat]: the IC50 in assay [1] (setting [3]) is above 25 µM. In addition, in assay [2] (setting [4]), the change in vivo at 30 mg/kg was -39%.

Take `COC(=O)NS(=O)(=O)Nc1c(C(C)C)cccc1C(C)C` [Example 1, Methyl [[2,6-bis(1-methylethyl)phenylamino]sulfonyl]carbamate]: in assay [1] (setting [3]), the IC50 is above 100 µM.

Turning to `CCCCCCCCCCCCOC(=O)NS(=O)(=O)Nc1c(C(C)C)cccc1C(C)C` [Example 2], the change in vivo at 30 mg/kg in assay [2] (setting [5]) was found to be 0%.

`COc1cc(C(C)(C)C)c(OC(=O)NS(=O)(=O)NCC(c2ccccc2)c2ccccc2)c(C(C)(C)C)c1` [Example 3]: in assay [2] (setting [4]), the change in vivo at 30 mg/kg is -55%.

Consider `CCCCCCCCN(CCCCCCCC)S(=O)(=O)NC(=O)Oc1c(C(C)C)cccc1C(C)C` [Example 38, 2,6-Bis(1-methylethyl)phenyl[(dioctylamino)sulfonyl]carbamate], for which the change in vivo at 30 mg/kg in assay [2] (setting [4]) was -70%.

`CC(C)(C)c1cccc(C(C)(C)C)c1OC(=O)NS(=O)(=O)NC(c1ccccc1)c1ccccc1` [Example 5, 2,6-bis(1,1-dimethylethyl)phenyl[[(diphenylmethyl)amino]sulfonyl]carbamate]: the change in vivo at 50 mg/kg in assay [2] (Rattus norvegicus, single dose 50 mg/kg (*), read-out: % Change (mg/dl) (cholesterol)) was -35%.

For the molecule `CCCCN(CCCC)S(=O)(=O)NC(=O)Oc1c(C(C)C)cccc1C(C)C` [Example 57, 2,6-bis(1-methylethyl)phenyl[(dibutylamino)sulfonyl]carbamate monosodium salt], the “% Change (mg/dl) (cholesterol)” value in assay [2] (rat, monosodium salt) is given as -66 % Change (mg/dl).

As usually defined, the IC50 is the point on the concentration scale where inhibition reaches its midpoint.
